Assay results reported in patent publication US12121536B2, “Strontium based compositions and formulations for pain, pruritus, and inflammation” (Galleon Labs LLC, priority 2015, dated 2024).
One block for each compound: values may come before it.

Tests used:
[1] = Clinical observation: topical application, itching and erythema (flushing); assay type: in vivo, human; conditions: for itching and erythema of skin: 1% in water solution, 4×2 inch patch on inside forearm, one subject
Protocol: BHB acts on the same pathway that causes flushing in individuals who take high doses of niacin. A topical formulation containing BHB was evaluated to see if it induced itching and erythema. The BHB formulation was compared to a topical niacin formulation.
A 1% BHB in water solution was made and a 1% niacin in water solution was made. Unknown to the subject, the BHB formula was applied in a 4×2 inch patch on the inside left forearm and the niacin formula was applied in a 4×2 in patch on the inside right forearm. The skin was evaluated over a period of time.

[2] = emulsions with more than about 6-7% salt (about 2% elemental strontium)
[3] = Preliminary investigations: pain of post herpetic neuralgia; assay type: in vivo
TLR-4 = TLR-4 (Homo sapiens, UniProt O00206); experiment: Preliminary data in atopic dermatitis: TLR-4
TLR-4, sequence (O00206 24-839, species assumed): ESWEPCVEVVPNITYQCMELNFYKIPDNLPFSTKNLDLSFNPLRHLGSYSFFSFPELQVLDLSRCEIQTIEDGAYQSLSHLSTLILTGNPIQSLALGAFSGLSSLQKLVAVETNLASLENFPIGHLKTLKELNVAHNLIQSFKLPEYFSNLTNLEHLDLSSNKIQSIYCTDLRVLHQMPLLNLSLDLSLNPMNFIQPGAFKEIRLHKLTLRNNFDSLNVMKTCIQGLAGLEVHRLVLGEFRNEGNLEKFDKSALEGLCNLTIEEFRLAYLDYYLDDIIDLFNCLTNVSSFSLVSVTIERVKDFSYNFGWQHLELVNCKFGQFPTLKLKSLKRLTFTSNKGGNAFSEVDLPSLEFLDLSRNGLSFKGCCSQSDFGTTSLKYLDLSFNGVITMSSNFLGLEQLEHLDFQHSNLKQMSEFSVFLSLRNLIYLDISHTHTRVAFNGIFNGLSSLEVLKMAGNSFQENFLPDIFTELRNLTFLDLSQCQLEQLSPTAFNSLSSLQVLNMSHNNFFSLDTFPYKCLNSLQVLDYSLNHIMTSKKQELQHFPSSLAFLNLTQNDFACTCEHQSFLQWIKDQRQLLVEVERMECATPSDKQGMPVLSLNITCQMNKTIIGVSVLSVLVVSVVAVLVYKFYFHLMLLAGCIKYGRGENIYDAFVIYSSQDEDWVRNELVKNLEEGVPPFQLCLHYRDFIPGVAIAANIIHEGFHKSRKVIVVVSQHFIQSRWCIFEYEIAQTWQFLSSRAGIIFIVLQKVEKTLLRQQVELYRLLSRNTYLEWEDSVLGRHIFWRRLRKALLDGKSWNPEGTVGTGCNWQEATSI

MMP = experiment: Preliminary data in atopic dermatitis: MMP
nociceptor = conditions: cited from earlier work
TCN [4] = experiment: Burning pain from acidic chemical peel (70% glycolic acid) mixed with strontium; assay type: in vivo; conditions: strontium mixed with 70% glycolic acid, pH 0.6
Protocol: Nociceptors also have a CaSR that inhibits nociceptor activation when the extracellular concentration of calcium is raised above normal, or if a similar concentration of strontium is administered. […] When strontium is mixed with the acid, burning pain and stinging is suppressed by 80% or more so that any remaining sensory irritation is not bothersome.

IL-17 = molecular target: T1, IL-17 (Homo sapiens, UniProt Q16552); experiment: Preliminary investigations in psoriasis: IL-17
T1 sequence (Q16552 24-155): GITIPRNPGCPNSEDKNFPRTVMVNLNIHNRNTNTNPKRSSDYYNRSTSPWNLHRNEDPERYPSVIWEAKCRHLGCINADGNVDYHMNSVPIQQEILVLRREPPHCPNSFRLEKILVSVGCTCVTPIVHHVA
Text: (§1) Preliminary investigations indicate that strontium can break up the inflammatory/keratinocyte cycle of psoriasis, specifically by blocking the IL-17 and TNF-alpha. By targeting and blocking the two main pathways that activated dendritic cells use to trigger a psoriatic episode, strontium has immense potential as a therapeutic for psoriasis.

HSV1 = experiment: Preliminary investigations: symptoms of HSV1; assay type: in vivo
Text: Without wishing to be bound by any one theory, it is believed that strontium's ability to block NF-Kappa B contributes to minimizing the symptoms associated with an active infection. As mentioned above, HSV 1 and 2 require the activation of NF-Kappa B for de novo virus synthesis. By blocking NF-Kappa B, strontium is essentially stopping the infection at an early stage.

[5] = Topical application to skin for pain, itch, irritation; assay type: in vivo; conditions: simple solutions of strontium and water, no penetration enhancer
Text: Without wishing to be bound by any one theory, it is believed that opening ion channels in the presence of strontium, allows greater levels of strontium to enter the nociceptor and shut down or decrease its activity. This is due to (1) strontium having a higher affinity than calcium for flowing into the ion channels and (2) the excessive amount of strontium ions present as compared to the physiological levels of calcium present. Furthermore, cysteine based antioxidants and strontium target different mechanisms to block nociception. The combination results in a synergistic affect
Most skin products are “pH balanced” to help maintain a healthy skin pH. […] While not wishing to be bound by any one theory, it is believed that the application of a low pH formulation on the skin activates acid sensitive ion channels such as ASIC and TRPV1 resulting in the opening of ion channels on the nociceptor. The opening of the ion channels in the presence of strontium allows greater levels of strontium to enter the nociceptor and shut down or decrease it activity. This is due to (1) strontium having a higher affinity than calcium for flowing into the ion channels and (2) the excessive amount of strontium ions present as compared to the physiological levels of calcium present. […]

TCN [6] = conditions: strontium substitutes for calcium; cited from earlier work
TNF-alpha = TNF-alpha (Homo sapiens, UniProt P01375); experiment: Preliminary investigations in psoriasis: TNF-alpha
TNF-alpha, sequence (P01375 77-233 limits assumed, species assumed): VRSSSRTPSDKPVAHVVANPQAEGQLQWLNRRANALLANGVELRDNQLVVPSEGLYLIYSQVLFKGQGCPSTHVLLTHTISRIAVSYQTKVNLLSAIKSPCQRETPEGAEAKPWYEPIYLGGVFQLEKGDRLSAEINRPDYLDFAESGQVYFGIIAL
Text: as §1

itching and erythema of skin [1]: did not redden or become itchy
flush/blush response ([1]; compared with niacin): does not activate
SMILES: CC(O)CC(=O)O (stereo not drawn) [BHB, beta-hydroxybutyric acid]

SMILES: O.O.O.O.O.O.[Cl-].[Cl-].[Sr+2] [strontium chloride hexahydrate]
emulsion stability [2]: tend to be unstable and separate

itching and erythema of skin [1]: began to redden and itch
SMILES: O=C(O)c1cccnc1 [niacin, nicotinic acid, reference compound]

SMILES: [Sr+2] [strontium]
pain associated with PHN [3]: can reduce or block
blocking of TLR-4 activity (TLR-4): can block
blocking of MMP activity (MMP): can block
ability to induce CICR relative to calcium (nociceptor): over a hundred-fold less active
concentration reached in the ER, greater than calcium (nociceptor; not told): more than 150%
suppression of burning pain and stinging (TCN [4]): ≥ 80%
blocking of IL-17 (IL-17): blocking
pain, itch, and rash/blister formation associated with HSV1 (HSV1): can reduce and or eliminate
reducing pain and irritation [5]: can be effective
reduction of amplitude of synchronous neurotransmitter release (TCN [6]): more than 90%
blocking of TNF-alpha (TNF-alpha): blocking

SMILES: O=[N+]([O-])[O-].O=[N+]([O-])[O-].[Sr+2] [strontium nitrate]
emulsion stability [2]: tend to be unstable and separate
